The target of the first assay is T1, Human FXRα Ligand Binding Domain (Homo sapiens, UniProt Q96RI1).
T1 construct: polyhistidine (pRSET-A vector leader) (N); made in house; host or cells: E. coli BL21 (DE3), pRSET-A vector
T1 sequence (Q96RI1 237-472 isoform Q96RI1-2): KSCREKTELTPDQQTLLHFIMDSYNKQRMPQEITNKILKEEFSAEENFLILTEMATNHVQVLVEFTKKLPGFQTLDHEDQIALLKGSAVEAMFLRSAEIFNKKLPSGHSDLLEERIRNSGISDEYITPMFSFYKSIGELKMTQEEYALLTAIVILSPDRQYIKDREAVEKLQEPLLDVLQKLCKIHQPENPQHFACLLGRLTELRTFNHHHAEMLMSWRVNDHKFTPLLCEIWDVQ
Briefly: FXR Cofactor Binding Assay (time resolved fluorescence, SRC-1 peptide recruitment). Type of assay: biochemical. Conditions: class symbols; read-out: Activity (pEC50) (converted). From the text:
Determination of a ligand mediated cofactor peptide interaction to quantify ligand binding to the nuclear receptor Farnesoid X Receptor (FXR). The method measures the ability of putative ligands to modulate the interaction between the purified bacterial expressed FXRα ligand binding domain (LBD) and a synthetic biotinylated peptide based on residues 676-700 of steroid receptor coactivator-1 (SRC-1) (LXXLL-containing domain-2 where L is the amino acid leucine and X indicates any other amino acid (LCD2), 676-700). The sequence of the SRC-1 peptide used is as published in Iannone, M. A., et al., 2001 Cytometry 44:326-337 where the N-terminus was biotinylated (B) and the C-terminus was amidated. Detection of the associated complex was measured by time resolved fluorescence (TRF). The purified LBD of FXR was labeled with biotin then mixed with stoichiometric amounts of allophycocyanin (APC) labeled streptavidin (Molecular Probes). The biotinylated peptide was then mixed with a ½ stoichiometric amount of europium labeled streptavidin (Wallac Inc). Each was then blocked with a 5 fold excess of biotin and allowed to equilibrate for 15 min. Equimolar amounts of receptor and peptide were mixed together and were allowed to equilibrate for at least 30 min prior to the addition to either a variable or constant concentrations of the sample for which the affinity is to be determined. After equilibration, the time-resolved fluorescent signal was quantitated using a fluorescent plate reader. The affinity of the test compound was estimated from a plot of fluorescence versus concentration of test compound added.
A basal level of FXR: peptide formation is observed in the absence of added ligand. Ligands that promote the complex formation induce a concentration-dependent increase in time-resolved fluorescent signal. Compounds which bind equally well to both monomeric FXR and to the FXR: peptide complex would be expected to give no change in signal, whereas ligands which bind preferentially to the monomeric receptor would be expected to induce a concentration-dependent decrease in the observed signal.
Advance Preparation: Human Farnesoid X Receptor α Ligand Binding Domain Human FXRα Ligand Binding Domain (FXRα LBD) was expressed in E. coli strain BL21 (DE3) as an amino-terminal polyhistidine tagged fusion protein. Expression was under the control of an isopropyl-β-D-thiogalactopyranoside (IPTG) inducible T7 promoter. DNA encoding this recombinant protein is subcloned into the pRSET-A expression vector (Invitrogen). The coding sequence of Human FXRα LBD was derived from Genbank accession number U 68233 (amino acids 237 to 472).
Ten-liter fermentation batches were grown in Rich PO4 media with 0.1 mg/mL Ampicillin at 25° C. for 12 hours, cooled to 9° C. and held at that temperature for 36 hours to a density of OD600=14. At this cell density, 0.25 mM IPTG is added and induction proceeded for 24 hours at 9° C., to a final OD600=16. Cells are harvested by centrifugation (20 minutes, 3500× gravity, 4° C.), and concentrated cell slurries were stored in phosphate buffered saline (PBS) at […].
Routinely, 30-40 g cell paste (equivalent to 2-3 liters of the fermentation batch) was resuspended in 200-250 mL Tris buffered saline (TBS), pH 7.2 (25 mM Tris-hydroxymethylamino methane (Tris), 150 mM sodium chloride). Cells were lysed by passing 3 times through a French Press and cell debris was removed by centrifugation (30 minutes, 20,000× gravity, 4° C.). The cleared supernatant was filtered through course pre-filters, and TBS, pH 7.2, 500 mM imidazole was added to obtain a final imidazole concentration of 50 mM. This lysate was loaded onto a column (6×8 cm) packed with Sepharose [Ni^++ charged] Chelation resin (Pharmacia) and pre-equilibrated with TBS pH 7.2/50 mM imidazole. After washing to baseline absorbance with equilibration buffer, the column was washed with one column volume of TBS pH 7.2 containing 90 mM imidazole. […]
Consider `CC(C)c1onc(-c2c(Cl)cccc2Cl)c1COc1ccc(-c2ccc3c(c2)CCC3(O)C(=O)O)cc1` (stereo not drawn) [Example 7, 5-[4-({[3-(2,6-Dichlorophenyl)-5-(1-methylethyl)-4-isoxazolyl]methyl}oxy)phenyl]-1-hydroxy-2,3-dihydro-1H-indene-1-carboxylic Acid], for which the EC50 was 0.102 to 1 µM. Turning to `CC(C)c1onc(-c2c(Cl)cccc2Cl)c1COc1ccc(-c2ccc3cc(C(=O)O)[nH]c3c2)cc1` [Example 5, 6-[4-({[3-(2,6-Dichlorophenyl)-5-(1-methylethyl)-4-isoxazolyl]methyl}oxy)phenyl]-1H-indole-2-carboxylic Acid], the EC50 was 0.102 to 1 µM. Still for that read-out and setting: the figure for `CC(C)c1onc(-c2c(Cl)cccc2Cl)c1COc1ccc(-c2ccc3c(C(=O)O)csc3c2)cc1` [Example 11, 6-[4-({[3-(2,6-Dichlorophenyl)-5-(1-methylethyl)-4-isoxazolyl]methyl}oxy)phenyl]-1-benzothiophene-3-carboxylic Acid] is less than 0.1 µM. Regarding `CC(C)c1onc(-c2c(Cl)cccc2Cl)c1COc1ccc(-c2ccc3c(c2)C(C(=O)O)CC3)cc1` (stereo not drawn) [Example 2, 6-[4-({[3-(2,6-Dichlorophenyl)-5-(1-methylethyl)-4-isoxazolyl]methyl}oxy)phenyl]-2,3-dihydro-1H-indene-1-carboxylic Acid], the EC50 is 0.102 to 1 µM. As to `CC(C)c1onc(-c2c(Cl)cccc2Cl)c1COc1ccc(-c2ccc3c(C(=O)O)n[nH]c3c2)cc1` [Example 8, 6-[4-({[3-(2,6-Dichlorophenyl)-5-(1-methylethyl)-4-isoxazolyl]methyl}oxy)phenyl]-1H-indazole-3-carboxylic Acid], the EC50 is 1.02 to 10 µM.

In the case of `CC(C)c1onc(-c2c(Cl)cccc2Cl)c1COc1ccc(-c2ccc3sc(C(=O)O)cc3n2)cc1` [Example 10, 5-[4-({[3-(2,6-Dichlorophenyl)-5-(1-methylethyl)-4-isoxazolyl]methyl}oxy)phenyl]thieno[3,2-b]pyridine-2-carboxylic Acid], the EC50 was 0.102 to 1 µM. For `CC(C)c1onc(-c2c(Cl)cccc2Cl)c1COc1ccc(-c2ccc3c(C(=O)O)c[nH]c3c2)cn1` [Example 13, 6-[6-({[3-(2,6-Dichlorophenyl)-5-(1-methylethyl)-4-isoxazolyl]methyl}oxy)-3-pyridinyl]-1H-indole-3-carboxylic Acid], the EC50 was 0.102 to 1 µM. On the same count and under the same terms, the figure for `CC(C)c1onc(-c2c(Cl)cccc2Cl)c1COc1ccc(-c2ccc3c(=O)cc(C(=O)O)oc3c2)cc1` [Example 16, 7-[4-({[3-(2,6-Dichlorophenyl)-5-(1-methylethyl)-4-isoxazolyl]methyl}oxy)phenyl]-4-oxo-4H-chromene-2-carboxylic Acid] is 0.102 to 1 µM. As for `CC(C)c1onc(-c2c(Cl)cccc2Cl)c1COc1ccc(-c2ccc3sc(C(=O)O)cc3c2)cc1` [Example 12, 5-[4-({[3-(2,6-Dichlorophenyl)-5-(1-methylethyl)-4-isoxazolyl]methyl}oxy)phenyl]-1-benzothiophene-2-carboxylic Acid], the EC50 is 0.102 to 1 µM. In the case of `CC(C)c1onc(-c2c(Cl)cccc2Cl)c1COc1ccc(-c2csc3ccc(C(=O)O)cc23)cc1` [Example 9, 3-[4-({[3-(2,6-Dichlorophenyl)-5-(1-methylethyl)-4-isoxazolyl]methyl}oxy)phenyl]-1-benzothiophene-5-carboxylic Acid], the EC50 is 1.02 to 10 µM.

In the case of `CC(C)c1onc(-c2c(Cl)cccc2Cl)c1COc1ccc(-c2ccc3oc(C(=O)O)cc(=O)c3c2)cc1` [Example 14, 6-[4-({[3-(2,6-Dichlorophenyl)-5-(1-methylethyl)-4-isoxazolyl]methyl}oxy)phenyl]-4-oxo-4H-chromene-2-carboxylic Acid], the EC50 is less than 0.1 µM. As for `CC(C)c1onc(-c2c(Cl)cccc2Cl)c1COc1ccc(Sc2cccc3sc(C(=O)O)cc23)cc1` [Example 19, 4-{[4-({[3-(2,6-Dichlorophenyl)-5-(1-methylethyl)-4-isoxazolyl]methyl}oxy)phenyl]thio}-1-benzothiophene-2-carboxylic Acid], the EC50 is 0.102 to 1 µM.

With `CC(C)c1onc(-c2c(Cl)cccc2Cl)c1COc1ccc(-c2nc3cccc(C(=O)O)c3[nH]2)cc1` [Example 21, 2-[4-({[3-(2,6-Dichlorophenyl)-5-(1-methylethyl)-4-isoxazolyl]methyl}oxy)phenyl]-1H-benzimidazole-4-carboxylic Acid], the EC50 is 1.02 to 10 µM.

For the molecule `CC(C)c1onc(-c2c(Cl)cccc2Cl)c1COc1ccc(-c2ccc3c(c2)CCCC3C(=O)O)cc1` (stereo not drawn) [Example 17, 6-[4-({[3-(2,6-Dichlorophenyl)-5-(1-methylethyl)-4-isoxazolyl]methyl}oxy)phenyl]-1,2,3,4-tetrahydro-1-naphthalenecarboxylic Acid], the EC50 was 0.102 to 1 µM. In the case of `CC(C)c1onc(-c2c(Cl)cccc2Cl)c1COc1ccc(Nc2cccc3ccc(C(=O)O)cc23)cc1` [Example 18, 8-{[4-({[3-(2,6-Dichlorophenyl)-5-(1-methylethyl)-4-isoxazolyl]methyl}oxy)phenyl]amino}-2-naphthalenecarboxylic Acid], the EC50 was 0.102 to 1 µM. `CC(C)c1onc(-c2c(Cl)cccc2Cl)c1COc1ccc(-c2ccc3c(C(=O)O)c[nH]c3c2)cc1` [Example 3, 6-[4-({[3-(2,6-Dichlorophenyl)-5-(1-methylethyl)-4-isoxazolyl]methyl}oxy)phenyl]-1H-indole-3-carboxylic Acid]: the EC50 is less than 0.1 µM. On the same count and under the same terms, under `CC(C)c1onc(-c2c(Cl)cccc2Cl)c1COc1ccc(-c2ccc3oc(C(=O)O)cc3c2)cc1` [Example 4, 5-[4-({[3-(2,6-Dichlorophenyl)-5-(1-methylethyl)-4-isoxazolyl]methyl}oxy)phenyl]-1-benzofuran-2-carboxylic Acid] stands less than 0.1 µM; under `CC(C)c1onc(-c2c(Cl)cccc2Cl)c1COc1ccc(-c2ccc3c(c2)CC(C(=O)O)C3)cc1` (stereo not drawn) [Example 6, 5-[4-({[3-(2,6-Dichlorophenyl)-5-(1-methylethyl)-4-isoxazolyl]methyl}oxy)phenyl]-2,3-dihydro-1H-indene-2-carboxylic Acid], 0.102 to 1 µM. In the case of `CC(C)c1onc(-c2c(Cl)cccc2Cl)c1COc1ccc(-c2ccc3c(C(=O)O)cc(=O)oc3c2)cc1` [Example 15, 7-[4-({[3-(2,6-Dichlorophenyl)-5-(1-methylethyl)-4-isoxazolyl]methyl}oxy)phenyl]-2-oxo-2H-chromene-4-carboxylic Acid], the EC50 is 0.102 to 1 µM. For the molecule `CC(C)c1onc(-c2c(Cl)cccc2Cl)c1COc1ccc(-c2ccc3[nH]c(C(=O)O)cc3c2)cc1` [Example 1, 5-[4-({[3-(2,6-Dichlorophenyl)-5-(1-methylethyl)-4-isoxazolyl]methyl}oxy)phenyl]-1H-indole-2-carboxylic Acid], the EC50 is less than 0.1 µM.

Staying with this assay, now noted: given as numeric bound; read-out: Activity (pEC50) (converted).
As for `CCOC(=O)c1noc2cc(-c3ccc(OCc4c(-c5c(Cl)cccc5Cl)noc4C(C)C)cc3)ccc12` [Example 20, Ethyl 6-[4-({[3-(2,6-dichlorophenyl)-5-(1-methylethyl)-4-isoxazolyl]methyl}oxy)phenyl]-1,2-benzisoxazole-3-carboxylate], the EC50 is greater than 20 µM.

Source of the values: US20100249179A1, “Farnesoid X Receptor Agonists” (SMITHKLINE BEECHAM CORPORATION, priority 2007, published 2010).
